Results reported in patent publication US20060217456A1, “Non-toxic coating composition, methods of use thereof and articles protected from attachment of biofouling organisms” (priority 2003, published 2006).
Values after ≈ are worked out from the molar mass of the structure shown. Like-named read-outs stand apart in the source and are kept apart here.

How the values were obtained:
[1] = test system: cyprid stage larvae of the barnacle, Balanus amphitrite Darwin; assay: Barnacle settlement assay (cyprid larvae in seawater dishes); assay type: in vivo; settings: single compound, 28° C., 9 hours; for EC50: Amphibalanus amphitrite, read-out: EC50 (concentration inhibiting settlement of 50% of cyprid larvae)
Excerpt: Adults of the barnacle, Balanus amphitrite Darwin, were collected from the Sacred Heart Marine Research Center at St. Mary's College in Tuticorin, India. The barnacles were crushed and the nauplius stage larvae were collected for culture to the cyprid stage following the method of Rittschof et al., J. Exp. Mar. Biol. Ecol., 82:131-146 (1984). The cyprid is the stage at which the barnacle larva is competent to attach to surfaces. Upon attachment to a surface, the larva then undergoes metamorphosis into a barnacle.
Barnacle settlement assays were undertaken using the method described previously by Rittschof et al., J. Chem. Ecol., 11: 551-563 (1985). Briefly, Falcon 50×9 mm plastic petri dishes were filled with 5 ml of filtered seawater at salinity of 33-35 parts per thousand (ppt) and into which 3-day old cyprid stage larvae were added. Menthol and/or isopulegol and/or compounds listed under ii) a) to f), above, were introduced at various concentrations into the dishes containing seawater. Controls were represented by those dishes in which no test compound were added. After incubation at 28° C. for 9 hours, the dishes were examined under a dissecting microscope to determine if there was any mortality. The larvae were then killed with 10% formalin and the number of attached and unattached larvae were counted. Settlement data were expressed as the percentage of the larvae attached to the bottom of the dish.
The settlement assay was used to determine the effective concentration of a number of different compounds listed under ii) a) to f), above. The effective concentration (EC50) is that concentration which inhibited the settlement of fifty percent (50%) of the cyprid stage of the barnacle larvae present in a test sample. The racemic […] compounds are denoted with the prefix rac-.

[2] = test system: barnacle, Balanus amphitrite communis; assay: Marine paint panel immersion test, barnacles attached to painted iron panels; settings: cuprous oxide marine paint on iron panels, submerged 78 weeks, Bitac Cove; control = 100
Experimental: A floating platform was constructed using layers of bamboo and styrofoam floats. The platform was designed with holders to accommodate test panels measuring 4 inches×12 inches×0.25 inches (1 inch=2.54 cm). A first experimental paint was prepared, containing a biocidally effective amount of cuprous oxide and no other biocide which was used as the control. This composition consisted of 40 parts by weight of cuprous oxide, 10 parts by weight of iron oxide red, 5 parts by weight of xylene, 10 parts by weight of butyl alcohol, 5 parts by weight polyamide resin, 6 parts by weight of plasticizer. To this composition was added a combination of 0.5% by weight of rac-isopulegol, 0.25% by weight of (−)-menthol and 0.25% by weight of 1-menthol propyleneglycol carbonate (Composition A). A second paint composition was prepared from the same marine paint vehicle containing cuprous oxide, to which was added 2% by weight of (−)-menthol (Composition B). A third formulation was made from the same cuprous oxide-containing marine paint vehicle, to which was added 2% by weight of rac-isopulegol (Composition C). A fourth formulation was made from the same cuprous oxide-containing marine paint vehicle, to which was added 2% by weight of 1-menthol propyleneglycol carbonate (Composition D). Solid iron panels having the above-mentioned dimensions were painted with the paint formulations thus prepared, placed in the holders in the floating platform and submerged continuously near the center of Bitac Cove in San Dionisio Bay (Philippines) for a period of 78 weeks. The panels were examined for a few minutes every three months and immediately resubmerged after photography. After 78 weeks, the panels were removed and inspected. The numbers of barnacles attached to the panels were counted. The major fouling organisms included the barnacle, Balanus amphitrite communis, and the rock oyster, Crossostrea cuculata.

[3] = test system: cyprid stage larvae of the barnacle, Balanus amphitrite Darwin; settings: single compound; 28° C., 9 hours; see WO 01/95718; cited from earlier work

| Compound | EC50 (concentration inhibiting settlement of 50% of cyprid larvae) [1] [µg/mL] | EC50 (concentration inhibiting settlement of 50% of cyprid larvae) [3] | other results |
| --- | --- | --- | --- |
| CC(O)C(=O)O[C@@H]1C[C@H](C)CC[C@H]1C(C)C (mixture of isomers) [I-menthyl lactate, 1-menthyllactate] |  |  | EC50 [1]: 0.002 µg/mL |
| C=C(C)[C@@H]1CC[C@@H](C)C[C@H]1O (racemic) [rac-isopulegol] | 0.029 |  | % Settlement [2]: 16.1% |
| CC1CCC(C(C)C)C(O)C1 (racemic) [rac-menthol] |  | 0.1 (see WO 01/95718) mg/ml |  |
| CC1CCC(C(C)C)C2(C1)OCC(CO)O2 (racemic) [rac-menthone glycerin acetal] | 0.049 |  |  |
| CC1CCC(C(C)C)C(O)C1 (stereo not drawn) [1R, 2S, 5R-(−)-menthol (=l-menthol), 1R, 2S, 5R-(−)-menthol] |  | 4 * 10^−3 (see WO 01/95718) mg/ml | % Settlement [2]: 12.2% |
| CC1CC[C@H](C(C)C)[C@@H](O)C1 (stereo partly drawn) [1S, 2R, 5S-(+)-menthol, reference compound] |  | 0.1 (see WO 01/95718) mg/ml |  |
| C=C(C)[C@H]1CC=C(C)CC1 [d-limonene, reference compound] | 0.029 |  |  |
| CC(C)[C@@H]1CC[C@@H](C)C[C@@]12OCC(CO)O2 (stereo partly drawn) [menthone glycerin acetal] |  |  | EC50 [1]: 0.00052 µg/mL (≈ 0.00228 µM) |
| COC1CC(C)CCC1C(C)C (stereo not drawn) [menthylmethylether, reference compound] |  |  | EC50 [1]: 0.11 µg/mL (≈ 0.646 µM) |
| (−)-isopulegol |  | 8.8 * 10^−5 (see WO 01/95718) mg/ml |  |
| (−)-menthone [reference compound] |  | 0.001 (see WO 01/95718) mg/ml |  |
| l-menthyl propyleneglycol carbonate | 0.0022 |  | % Settlement [2]: 23.4% |
